# Reference: the CheMixHub viscosity set
# ± gives the uncertainty stated by the source.
# Experiment: xn = mol fraction of the nth substance listed
structure (smiles),measurement,setting,value
CCCCCCCCCO + COC(=O)OC,viscosity,"293.15 K, 101 kPa, x1 = 0.008",0.63 mPa·s
same,viscosity,"293.15 K, 101 kPa, x2 = 0.06435",9.044 mPa·s
same,viscosity,"293.15 K, 101 kPa, x2 = 0.1251",7.282 mPa·s
same,viscosity,"293.15 K, 101 kPa, x2 = 0.2318",5.067 mPa·s
same,viscosity,"293.15 K, 101 kPa, x2 = 0.322",3.834 mPa·s
same,viscosity,"293.15 K, 101 kPa, x2 = 0.4095",2.962 mPa·s
same,viscosity,"293.15 K, 101 kPa, x2 = 0.4994",2.281 mPa·s
same,viscosity,"293.15 K, 101 kPa, x2 = 0.6032",1.706 mPa·s
same,viscosity,"293.15 K, 101 kPa, x2 = 0.699",1.3 mPa·s
same,viscosity,"293.15 K, 101 kPa, x2 = 0.7961",0.991 mPa·s
same,viscosity,"293.15 K, 101 kPa, x2 = 0.8901",0.776 mPa·s
same,viscosity,"303.15 K, 100 kPa, x2 = 0.1",5.632 ± 0.17 mPa·s
same,viscosity,"303.15 K, 100 kPa, x2 = 0.1999",4.161 ± 0.13 mPa·s
same,viscosity,"303.15 K, 100 kPa, x2 = 0.3",3.081 ± 0.095 mPa·s
same,viscosity,"303.15 K, 100 kPa, x2 = 0.4",2.342 ± 0.072 mPa·s
same,viscosity,"303.15 K, 100 kPa, x2 = 0.5",1.81 ± 0.056 mPa·s
same,viscosity,"303.15 K, 100 kPa, x2 = 0.6",1.384 ± 0.043 mPa·s
same,viscosity,"303.15 K, 100 kPa, x2 = 0.7",1.06 ± 0.033 mPa·s
same,viscosity,"303.15 K, 100 kPa, x2 = 0.8",0.831 ± 0.026 mPa·s
same,viscosity,"303.15 K, 100 kPa, x2 = 0.9",0.658 ± 0.02 mPa·s
same,viscosity,"303.15 K, 101 kPa, x1 = 0.00584",0.55 mPa·s
same,viscosity,"303.15 K, 101 kPa, x2 = 0.04989",6.721 mPa·s
same,viscosity,"303.15 K, 101 kPa, x2 = 0.1183",5.358 mPa·s
same,viscosity,"303.15 K, 101 kPa, x2 = 0.2164",3.942 mPa·s
same,viscosity,"303.15 K, 101 kPa, x2 = 0.3115",2.991 mPa·s
same,viscosity,"303.15 K, 101 kPa, x2 = 0.4106",2.28 mPa·s
same,viscosity,"303.15 K, 101 kPa, x2 = 0.4935",1.832 mPa·s
same,viscosity,"303.15 K, 101 kPa, x2 = 0.6036",1.368 mPa·s
same,viscosity,"303.15 K, 101 kPa, x2 = 0.7016",1.059 mPa·s
same,viscosity,"303.15 K, 101 kPa, x2 = 0.7951",0.835 mPa·s
same,viscosity,"303.15 K, 101 kPa, x2 = 0.8982",0.657 mPa·s
same,viscosity,"308.15 K, 100 kPa, x2 = 0.1",4.801 ± 0.15 mPa·s
same,viscosity,"308.15 K, 100 kPa, x2 = 0.1999",3.592 ± 0.11 mPa·s
same,viscosity,"308.15 K, 100 kPa, x2 = 0.3",2.702 ± 0.083 mPa·s
same,viscosity,"308.15 K, 100 kPa, x2 = 0.4",2.074 ± 0.064 mPa·s
same,viscosity,"308.15 K, 100 kPa, x2 = 0.5",1.627 ± 0.05 mPa·s
same,viscosity,"308.15 K, 100 kPa, x2 = 0.6",1.253 ± 0.039 mPa·s
same,viscosity,"308.15 K, 100 kPa, x2 = 0.7",0.972 ± 0.03 mPa·s
same,viscosity,"308.15 K, 100 kPa, x2 = 0.8",0.769 ± 0.024 mPa·s
same,viscosity,"308.15 K, 100 kPa, x2 = 0.9",0.617 ± 0.019 mPa·s
same,viscosity,"313.15 K, 100 kPa, x2 = 0.1",4.133 ± 0.13 mPa·s
same,viscosity,"313.15 K, 100 kPa, x2 = 0.1999",3.123 ± 0.096 mPa·s
same,viscosity,"313.15 K, 100 kPa, x2 = 0.3",2.398 ± 0.074 mPa·s
same,viscosity,"313.15 K, 100 kPa, x2 = 0.4",1.848 ± 0.057 mPa·s
same,viscosity,"313.15 K, 100 kPa, x2 = 0.5",1.467 ± 0.045 mPa·s
same,viscosity,"313.15 K, 100 kPa, x2 = 0.6",1.141 ± 0.035 mPa·s
same,viscosity,"313.15 K, 100 kPa, x2 = 0.7",0.893 ± 0.028 mPa·s
same,viscosity,"313.15 K, 100 kPa, x2 = 0.8",0.713 ± 0.022 mPa·s
same,viscosity,"313.15 K, 100 kPa, x2 = 0.9",0.579 ± 0.018 mPa·s
same,viscosity,"313.15 K, 101 kPa, x1 = 0.00538",0.492 mPa·s
same,viscosity,"313.15 K, 101 kPa, x2 = 0.06799",4.566 mPa·s
same,viscosity,"313.15 K, 101 kPa, x2 = 0.1245",3.835 mPa·s
same,viscosity,"313.15 K, 101 kPa, x2 = 0.2254",2.876 mPa·s
same,viscosity,"313.15 K, 101 kPa, x2 = 0.2945",2.39 mPa·s
same,viscosity,"313.15 K, 101 kPa, x2 = 0.433",1.677 mPa·s
same,viscosity,"313.15 K, 101 kPa, x2 = 0.5255",1.342 mPa·s
same,viscosity,"313.15 K, 101 kPa, x2 = 0.6009",1.118 mPa·s
same,viscosity,"313.15 K, 101 kPa, x2 = 0.6997",0.882 mPa·s
same,viscosity,"313.15 K, 101 kPa, x2 = 0.8024",0.702 mPa·s
same,viscosity,"313.15 K, 101 kPa, x2 = 0.9014",0.571 mPa·s
same,viscosity,"318.15 K, 100 kPa, x2 = 0.1",3.586 ± 0.11 mPa·s
same,viscosity,"318.15 K, 100 kPa, x2 = 0.1999",2.735 ± 0.084 mPa·s
same,viscosity,"318.15 K, 100 kPa, x2 = 0.3",2.137 ± 0.066 mPa·s
same,viscosity,"318.15 K, 100 kPa, x2 = 0.4",1.662 ± 0.051 mPa·s
same,viscosity,"318.15 K, 100 kPa, x2 = 0.5",1.317 ± 0.041 mPa·s
same,viscosity,"318.15 K, 100 kPa, x2 = 0.6",1.04 ± 0.032 mPa·s
same,viscosity,"318.15 K, 100 kPa, x2 = 0.7",0.823 ± 0.025 mPa·s
same,viscosity,"318.15 K, 100 kPa, x2 = 0.8",0.665 ± 0.021 mPa·s
same,viscosity,"318.15 K, 100 kPa, x2 = 0.9",0.545 ± 0.017 mPa·s
same,viscosity,"323.15 K, 100 kPa, x2 = 0.1",3.119 ± 0.096 mPa·s
same,viscosity,"323.15 K, 100 kPa, x2 = 0.1999",2.397 ± 0.074 mPa·s
same,viscosity,"323.15 K, 100 kPa, x2 = 0.3",1.888 ± 0.058 mPa·s
same,viscosity,"323.15 K, 100 kPa, x2 = 0.4",1.494 ± 0.046 mPa·s
same,viscosity,"323.15 K, 100 kPa, x2 = 0.5",1.199 ± 0.037 mPa·s
same,viscosity,"323.15 K, 100 kPa, x2 = 0.6",0.951 ± 0.029 mPa·s
same,viscosity,"323.15 K, 100 kPa, x2 = 0.7",0.763 ± 0.024 mPa·s
same,viscosity,"323.15 K, 100 kPa, x2 = 0.8",0.621 ± 0.019 mPa·s
same,viscosity,"323.15 K, 100 kPa, x2 = 0.9",0.514 ± 0.016 mPa·s
